# Laboratory results published in publication PMC9855432, “Novel Set of Diarylmethanes to Target Colorectal Cancer: Synthesis, In Vitro and In Silico Studies” (Biomolecules, 2022).
# Key:
# human CRC HT-29 cells [1] = test: MTT cell viability / IC50 on HT-29 cells; assay type: cell-based; conditions: for IC50: MTT assay, 1 to 50 µM, mean ± SEM of at least three experiments; for viability at 50 µM: HT-29, MTT screening
# Experimental: (§1) Cells were grown in DMEM medium for HT-29 cells and RPMI 1640 medium for HCT116 cells, supplemented with 10% FBS, 1% L-glutamine and 100 U/mL penicillin and 100 μg/mL streptomycin. Cultures were maintained in a humidified atmosphere containing 5% CO2 at 37 °C. Stock solutions of each compound were used at 10^−2 M in DMSO and then diluted in culture medium to obtain the appropriate final concentrations. […] L929 cell line is a non-cancer cell line derived from L-strain (L cells) and has been grown in the Peptinov laboratory for years. L929 cells are murine adherent fibroblasts from subcutaneous connective tissue (areolar and adipose tissues). Cells were grown in DMEM medium supplemented with 10% FBS, 1% L-glutamine and 100 U/mL penicillin and 100 µg/mL streptomycin and maintained in a humidified incubator at 37 °C, 5% CO2. When confluence is at 80%, cells are trypsinyzed for 3 min and diluted in fresh medium. Each batch of cells is kept for 15 passages before being discarded and a new batch thawed.
# (§2) All compounds were tested on the metabolic activity of the cells using the MTT colorimetric assay. Briefly, cells were seeded in 96-well microplates at 8 × 10^3 cells/well for human CRC HT-29 cells and 5 × 10^3 cells/well for human CRC HCT116 cells and grown for 24 h in appropriate culture medium prior to exposure or not to compounds (6–27) with concentration ranges from 1 to 50 µM. After 48 h of treatment, MTT (5 g/L in Phosphate-buffered saline (PBS)) was added and incubated for another 3 h. The MTT was then removed from the wells and 100 µL/well of DMSO were added to dissolve formazan. The optical density was detected with a microplate reader (Thermoscientific, Multiskan FC) at 550 nm and cell viability was expressed as a percentage of each treatment condition compared to control cells. IC50 values were calculated for all compounds from the dose–response curve.
# human CRC HCT116 cells [2] = test: MTT cell viability / IC50 on HCT116 cells; assay type: cell-based; conditions: for IC50: MTT assay, 1 to 50 µM, mean ± SEM of at least three experiments; for viability at 50 µM: HCT-116, MTT screening
# Experimental: as §1, §2
# human CRC HT-29 cells [3] = test: DNA fragmentation, Cell Death Detection ELISA, HT-29; assay type: cell-based; conditions: treated at IC50, n-fold compared to control
# Experimental: (§3) Human CRC HT-29 and HCT116 cells were treated or not with the determined IC50 values of compounds (12a, 10a, 10b) for 24 and 48 h and then harvested with trypsin. Histone release from the nucleus during apoptosis was analyzed using the Cell Death Detection ELISA^PLUS as previously described. Cytosol extracts from 10^5 cells of each condition were obtained and DNA fragmentation was measured according to the manufacturer’s protocol. Results were reported as n-fold compared to control cells.
# human CRC HCT116 cells [4] = test: DNA fragmentation, Cell Death Detection ELISA, HCT116; assay type: cell-based; conditions: treated at IC50, n-fold compared to control
# Experimental: as §3
# P-Akt = test: Western blot of P-Akt in HCT116 cells; assay type: cell-based, human; conditions: HCT116, treated at IC50, 6 and 12 h
# Experimental: (§4) Human CRC HT-29 and HCT116 cells were treated or not with the determined IC50 values of compounds (12a, 10a, 10b) for indicated times (6, 12, 24 and 48h) and then harvested with trypsin. For total protein extraction, collected samples of each condition were washed with PBS. Then, the total cell pool was centrifuged at 200× g for 5 min at 4 °C and homogenized in RIPA lysis buffer (50 mM HEPES, pH 7.5, 150 mM NaCl, 1% sodium deoxycholate, 1% NP-40, 0.1% Sodium Dodecyl Sulfate (SDS), […] of aprotinin) containing protease inhibitors according to the manufacturer’s instructions as previously described. Proteins (60 µg) were separated on 12.5% SDS-PAGE gels and transferred to polyvinylidene difluoride (PVDF) membranes. Membranes were probed with respective human antibodies against caspase-3, cleaved caspase-3, PARP and Akt, ERK, p38 MAP Kinases and its phosphorylated forms according to the manufacturer’s instructions. After incubation with appropriate secondary antibodies, blots were developed using the «Immobilon Western » substrate following the manufacturer’s protocol and G:BOX system (Syngene, Ozyme). […]
# (§5) P-Akt, Akt, P-ERK, ERK, P-p38, p-38 sourced from human CRC HCT116 cells line were investigated. […] Total lysates were collected and expression of Akt, ERK and p38 MAPK proteins and their phosphorylated forms were determined by Western blot analysis.
# P-ERK = test: Western blot of P-ERK in HCT116 cells; assay type: cell-based, human; conditions: HCT116, treated at IC50, 6 and 12 h
# Experimental: as §4, §5
# P-p38 = test: Western blot of P-p38 in HCT116 cells; assay type: cell-based, human; conditions: HCT116, treated at IC50, 6 and 12 h
# Experimental: as §4, §5
# PARP [5] = test: Western blot of cleaved PARP in HT-29 cells; assay type: cell-based, human
# Experimental: (§6) Human CRC HT-29 and HCT116 cells were treated or not with the determined IC50 values of compounds (12a, 10a, 10b) for indicated times (6, 12, 24 and 48h) and then harvested with trypsin. For total protein extraction, collected samples of each condition were washed with PBS. Then, the total cell pool was centrifuged at 200× g for 5 min at 4 °C and homogenized in RIPA lysis buffer (50 mM HEPES, pH 7.5, 150 mM NaCl, 1% sodium deoxycholate, 1% NP-40, 0.1% Sodium Dodecyl Sulfate (SDS), […] of aprotinin) containing protease inhibitors according to the manufacturer’s instructions as previously described. Proteins (60 µg) were separated on 12.5% SDS-PAGE gels and transferred to polyvinylidene difluoride (PVDF) membranes. Membranes were probed with respective human antibodies against caspase-3, cleaved caspase-3, PARP and Akt, ERK, p38 MAP Kinases and its phosphorylated forms according to the manufacturer’s instructions. After incubation with appropriate secondary antibodies, blots were developed using the «Immobilon Western » substrate following the manufacturer’s protocol and G:BOX system (Syngene, Ozyme). Membranes were then reblotted with human anti-β-actin used as a loading control.
# Cells were treated or not for 24 and 48 h, with IC50 values of compounds 10a, 10b and 12a, for human CRC HT-29 cells and compounds 10a and 12a for human CRC HCT116 cells. Total lysates were collected, and expression of apoptosis-related proteins was determined by Western blot analysis.
# caspase-3 [6] = test: Western blot of cleaved caspase-3 in HT-29 cells; assay type: cell-based, human; conditions: HT-29, treated at IC50, within 48 h
# Experimental: as §6
# (§7) Cells were treated or not for 24 and 48 h, with IC50 values of compounds 10a, 10b and 12a, for human CRC HT-29 cells and compounds 10a and 12a for human CRC HCT116 cells. […]
# caspase-3 [7] = test: Western blot of cleaved caspase-3 in HCT116 cells; assay type: cell-based, human; conditions: HCT116, treated at IC50, 24 h (enhanced after 48 h)
# Experimental: as §6, §7
# PARP [8] = test: Western blot of cleaved PARP in HCT116 cells; assay type: cell-based, human; conditions: HCT116, treated at IC50, 24 and 48 h
# Experimental: as §6, §7
SMILES,"IC50 (human CRC HT-29 cells [1]; Homo sapiens, HT-29, 48 h)","viability at 50 µM (human CRC HT-29 cells [1]; Homo sapiens, 48 h)",IC50 (human CRC HT-29 cells [1]; 48 h),"IC50 (human CRC HCT116 cells [2]; Homo sapiens, HCT-116, 48 h)","viability at 50 µM (human CRC HCT116 cells [2]; Homo sapiens, 48 h)",IC50 (human CRC HCT116 cells [2]; 48 h),HT-29 DNA Fragmentation (Fold) (human CRC HT-29 cells [3]; 24 h),HT-29 DNA Fragmentation (Fold) (human CRC HT-29 cells [3]; 48 h),HCT116 DNA Fragmentation (Fold) (human CRC HCT116 cells [4]; 24 h),HCT116 DNA Fragmentation (Fold) (human CRC HCT116 cells [4]; 48 h),P-Akt expression (P-Akt),ERK phosphorylation (P-ERK),p38 activation (P-p38),"cleaved PARP expression (PARP [5]; HT-29, treated at IC50, 24 h)","cleaved PARP expression (PARP [5]; HT-29, treated at IC50, 48 h)",cleaved caspase-3 expression (caspase-3 [6]),cleaved caspase-3 expression (caspase-3 [7]),cleaved PARP expression (PARP [8])
"COc1ccc(C(=Cc2ccc(C(C)(C)C)cc2)c2ccccn2)cc1 [Compound 10a, 2-(2-(4-(tert-butyl)phenyl)-1-(4-methoxyphenyl)vinyl)pyridine]",< 30 µM,< 50%,25.7 ± 1.21 µM,< 35 µM,< 50%,33.6 ± 0.71 µM,1.12 Fold,0.83 Fold,0.83 Fold,1.89 Fold,inhibition is also observed,drastically decreased,no p38 activation was observed,never been expressed,never been expressed,,,
"COc1ccc(C(=Cc2ccc(C(F)(F)F)cc2)c2ccccn2)cc1 [Compound 12a, 2-(1-(4-methoxyphenyl)-2-(4-(trifluoromethyl)phenyl)vinyl)pyridine]",,< 50%,23 ± 1.27 µM,< 35 µM,< 50%,31.4 ± 1.74 µM,2.90 Fold,3.25 Fold,1.46 Fold,6.97 Fold,downregulated,drastically decreased,no p38 activation was observed,slightly enhanced,overexpressed,high expression of the cleaved form of caspase-3,cleavage of caspase-3,significant increase of cleaved PARP
